Source: ChEMBL document CHEMBL1130220, “Synthesis of willardiine and 6-azawillardiine analogs: pharmacological characterization on cloned homomeric human AMPA and kainate receptor subtypes” (J Med Chem, 1997)

What was measured:
Glutamate receptor 2 = Glutamate receptor 2 (Homo sapiens, UniProt P42262); experiment: biochemical
Glutamate receptor 1 [1] = target: Glutamate receptor 1 (Homo sapiens, UniProt P42261); experiment: biochemical
Glutamate receptor 4 = Glutamate receptor 4 (Homo sapiens, UniProt P48058); experiment: biochemical
[2] = target: Glutamate receptor ionotropic, kainate 3 (Rattus norvegicus, UniProt P42264); experiment: Potency on Ionotropic glutamate receptor kainate in dorsal root ganglion cells; assay type: functional, cell-based
Glutamate receptor 1 [3] = target: Glutamate receptor 1 (Rattus norvegicus, UniProt P19490); experiment: Potency on Ionotropic glutamate receptor AMPA in hippocampal neurons; assay type: functional, tissue-based, Hippocampus
Sequence of Glutamate receptor 1 (Rattus norvegicus, UniProt P19490) (P19490 whole entry): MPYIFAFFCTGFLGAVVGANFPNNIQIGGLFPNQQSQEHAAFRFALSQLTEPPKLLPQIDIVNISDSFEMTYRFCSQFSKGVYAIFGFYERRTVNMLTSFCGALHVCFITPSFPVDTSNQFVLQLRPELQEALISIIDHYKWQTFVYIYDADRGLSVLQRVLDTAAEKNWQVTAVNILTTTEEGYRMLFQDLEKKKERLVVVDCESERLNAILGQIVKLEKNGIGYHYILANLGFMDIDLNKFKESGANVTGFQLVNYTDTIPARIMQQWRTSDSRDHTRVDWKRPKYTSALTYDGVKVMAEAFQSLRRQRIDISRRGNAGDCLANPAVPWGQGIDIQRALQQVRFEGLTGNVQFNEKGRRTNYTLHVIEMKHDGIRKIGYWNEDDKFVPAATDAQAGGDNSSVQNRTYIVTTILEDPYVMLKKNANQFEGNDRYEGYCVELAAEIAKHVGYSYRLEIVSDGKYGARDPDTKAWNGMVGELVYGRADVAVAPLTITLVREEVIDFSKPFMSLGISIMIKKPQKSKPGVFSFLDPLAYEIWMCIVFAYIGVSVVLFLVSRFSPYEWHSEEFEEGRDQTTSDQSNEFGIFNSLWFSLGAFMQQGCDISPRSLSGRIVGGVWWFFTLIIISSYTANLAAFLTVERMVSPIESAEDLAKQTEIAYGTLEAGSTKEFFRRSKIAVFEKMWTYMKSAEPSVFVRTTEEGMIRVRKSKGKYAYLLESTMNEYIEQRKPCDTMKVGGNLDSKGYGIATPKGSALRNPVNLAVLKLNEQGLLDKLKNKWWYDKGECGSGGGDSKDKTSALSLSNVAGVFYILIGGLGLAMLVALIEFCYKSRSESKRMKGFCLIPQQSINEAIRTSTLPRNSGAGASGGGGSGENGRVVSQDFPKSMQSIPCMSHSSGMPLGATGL

Sequence of Glutamate receptor 1 (Homo sapiens, UniProt P42261) (P42261 whole entry): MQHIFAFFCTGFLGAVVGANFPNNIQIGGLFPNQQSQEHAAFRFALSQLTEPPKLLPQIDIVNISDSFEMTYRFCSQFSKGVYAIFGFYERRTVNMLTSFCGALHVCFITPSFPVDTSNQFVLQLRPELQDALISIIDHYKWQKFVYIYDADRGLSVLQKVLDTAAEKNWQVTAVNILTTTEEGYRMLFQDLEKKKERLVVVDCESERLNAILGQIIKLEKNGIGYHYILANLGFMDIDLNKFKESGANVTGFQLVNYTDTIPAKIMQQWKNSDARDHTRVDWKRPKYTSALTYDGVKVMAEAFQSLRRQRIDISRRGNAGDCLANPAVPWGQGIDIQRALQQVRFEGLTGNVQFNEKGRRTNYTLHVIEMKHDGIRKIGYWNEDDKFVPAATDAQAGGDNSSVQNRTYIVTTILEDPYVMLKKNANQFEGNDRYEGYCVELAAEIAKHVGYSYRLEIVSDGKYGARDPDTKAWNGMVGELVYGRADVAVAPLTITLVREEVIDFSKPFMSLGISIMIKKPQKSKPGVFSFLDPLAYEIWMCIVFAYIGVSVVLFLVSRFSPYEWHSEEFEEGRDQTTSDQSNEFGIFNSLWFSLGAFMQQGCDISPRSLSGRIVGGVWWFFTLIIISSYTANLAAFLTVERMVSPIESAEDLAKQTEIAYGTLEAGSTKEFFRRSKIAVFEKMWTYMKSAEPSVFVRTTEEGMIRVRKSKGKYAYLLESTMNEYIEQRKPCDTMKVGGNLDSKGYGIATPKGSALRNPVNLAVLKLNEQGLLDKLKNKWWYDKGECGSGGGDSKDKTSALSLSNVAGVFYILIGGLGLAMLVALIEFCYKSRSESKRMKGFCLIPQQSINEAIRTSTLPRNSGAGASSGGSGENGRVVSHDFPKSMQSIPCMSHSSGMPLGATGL
Sequence of Glutamate receptor 2 (P42262 whole entry): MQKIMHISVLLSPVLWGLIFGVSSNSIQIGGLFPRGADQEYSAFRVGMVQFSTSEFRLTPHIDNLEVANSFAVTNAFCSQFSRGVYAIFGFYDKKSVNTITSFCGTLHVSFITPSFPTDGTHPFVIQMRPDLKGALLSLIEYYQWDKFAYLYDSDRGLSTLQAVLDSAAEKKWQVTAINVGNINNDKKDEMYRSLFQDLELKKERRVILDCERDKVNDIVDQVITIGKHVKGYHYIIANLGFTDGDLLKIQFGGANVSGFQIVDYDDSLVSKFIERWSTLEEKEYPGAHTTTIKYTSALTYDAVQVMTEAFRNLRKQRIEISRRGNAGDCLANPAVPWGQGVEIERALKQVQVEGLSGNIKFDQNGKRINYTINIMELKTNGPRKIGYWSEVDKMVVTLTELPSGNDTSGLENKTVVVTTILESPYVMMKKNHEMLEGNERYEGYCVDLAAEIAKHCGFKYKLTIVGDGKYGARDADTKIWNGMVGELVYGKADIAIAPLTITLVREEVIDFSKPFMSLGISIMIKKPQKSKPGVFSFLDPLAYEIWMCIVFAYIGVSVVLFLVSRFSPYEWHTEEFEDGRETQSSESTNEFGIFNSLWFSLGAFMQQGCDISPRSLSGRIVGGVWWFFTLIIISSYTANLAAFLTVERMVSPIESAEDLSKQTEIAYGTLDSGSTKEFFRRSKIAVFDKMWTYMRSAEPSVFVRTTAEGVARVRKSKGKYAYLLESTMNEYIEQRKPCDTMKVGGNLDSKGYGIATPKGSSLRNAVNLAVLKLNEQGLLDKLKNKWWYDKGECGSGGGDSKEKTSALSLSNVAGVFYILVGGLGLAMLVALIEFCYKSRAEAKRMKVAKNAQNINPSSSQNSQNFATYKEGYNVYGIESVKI
Sequence of Glutamate receptor 4 (P48058 whole entry): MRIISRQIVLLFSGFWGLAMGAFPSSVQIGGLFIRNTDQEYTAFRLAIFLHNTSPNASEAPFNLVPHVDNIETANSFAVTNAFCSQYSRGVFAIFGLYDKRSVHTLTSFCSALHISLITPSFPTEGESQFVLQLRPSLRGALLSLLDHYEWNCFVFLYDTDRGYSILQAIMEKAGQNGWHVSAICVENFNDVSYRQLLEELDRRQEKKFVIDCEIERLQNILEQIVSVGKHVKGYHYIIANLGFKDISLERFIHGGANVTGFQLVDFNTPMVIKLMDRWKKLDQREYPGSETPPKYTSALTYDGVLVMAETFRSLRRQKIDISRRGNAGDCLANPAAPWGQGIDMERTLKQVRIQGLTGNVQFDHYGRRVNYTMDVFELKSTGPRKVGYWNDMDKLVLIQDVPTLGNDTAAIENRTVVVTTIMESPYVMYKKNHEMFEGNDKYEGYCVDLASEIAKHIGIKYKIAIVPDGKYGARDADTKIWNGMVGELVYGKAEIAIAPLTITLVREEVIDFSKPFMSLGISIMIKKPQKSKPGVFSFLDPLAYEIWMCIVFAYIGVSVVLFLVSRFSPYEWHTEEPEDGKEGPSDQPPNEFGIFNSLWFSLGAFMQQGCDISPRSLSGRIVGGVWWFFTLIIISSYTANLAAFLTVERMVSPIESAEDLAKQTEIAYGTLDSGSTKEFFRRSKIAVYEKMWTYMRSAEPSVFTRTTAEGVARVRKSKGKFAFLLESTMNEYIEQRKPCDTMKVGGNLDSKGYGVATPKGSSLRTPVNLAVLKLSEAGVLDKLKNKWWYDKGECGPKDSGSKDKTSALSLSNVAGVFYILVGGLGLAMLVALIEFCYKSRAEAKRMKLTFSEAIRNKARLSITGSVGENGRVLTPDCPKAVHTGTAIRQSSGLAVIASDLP
Sequence of Glutamate receptor ionotropic, kainate 3 (P42264 whole entry): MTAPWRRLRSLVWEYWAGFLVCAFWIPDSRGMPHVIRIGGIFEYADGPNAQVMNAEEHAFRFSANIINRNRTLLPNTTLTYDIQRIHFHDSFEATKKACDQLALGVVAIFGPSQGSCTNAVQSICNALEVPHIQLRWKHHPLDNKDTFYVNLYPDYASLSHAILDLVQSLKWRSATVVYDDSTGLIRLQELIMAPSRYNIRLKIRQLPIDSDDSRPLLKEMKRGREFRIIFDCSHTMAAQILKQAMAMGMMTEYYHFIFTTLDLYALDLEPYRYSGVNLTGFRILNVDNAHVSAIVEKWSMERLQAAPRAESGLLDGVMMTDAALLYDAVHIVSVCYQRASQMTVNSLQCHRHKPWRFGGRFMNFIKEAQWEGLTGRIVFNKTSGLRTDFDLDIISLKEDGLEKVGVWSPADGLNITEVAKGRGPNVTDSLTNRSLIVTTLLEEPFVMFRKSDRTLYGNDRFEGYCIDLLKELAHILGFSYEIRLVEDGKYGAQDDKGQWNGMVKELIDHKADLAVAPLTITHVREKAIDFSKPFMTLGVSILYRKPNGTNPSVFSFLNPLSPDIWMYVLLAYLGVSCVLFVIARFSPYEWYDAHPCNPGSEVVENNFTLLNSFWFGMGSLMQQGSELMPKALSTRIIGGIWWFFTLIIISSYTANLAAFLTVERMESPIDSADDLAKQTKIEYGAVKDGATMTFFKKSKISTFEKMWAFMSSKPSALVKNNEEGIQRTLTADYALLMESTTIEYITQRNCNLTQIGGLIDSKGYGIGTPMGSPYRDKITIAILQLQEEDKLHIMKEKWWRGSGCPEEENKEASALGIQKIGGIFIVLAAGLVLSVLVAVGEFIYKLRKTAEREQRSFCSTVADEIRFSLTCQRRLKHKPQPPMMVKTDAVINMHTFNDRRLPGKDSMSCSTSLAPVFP

| SMILES | Ki (Glutamate receptor 2) | Ki (Glutamate receptor 1 [1]) | Ki (Glutamate receptor 4) | EC50 [2] | EC50 (Glutamate receptor 1 [3]) |
| --- | --- | --- | --- | --- | --- |
| Cc1nn(C[C@H](N)C(=O)O)c(=O)[nH]c1=O | 372 nM | 240 nM | 89 nM | – | – |
| N[C@@H](Cn1cc([N+](=O)[O-])c(=O)[nH]c1=O)C(=O)O | – | 279 nM | 207 nM | – | – |
| N[C@@H](Cn1cc(Cl)c(=O)[nH]c1=O)C(=O)O | – | 65 nM | 451 nM | – | – |
| N[C@@H](Cn1nc(I)c(=O)[nH]c1=O)C(=O)O | 101 nM | 73.9 nM | 19.9 nM | – | – |
| N[C@@H](Cn1cc(I)c(=O)[nH]c1=O)C(=O)O | – | 163 nM | 972 nM | 140 nM | 19200 nM |
| N[C@@H](Cn1ncc(=O)[nH]c1=O)C(=O)O | 461 nM | 163 nM | 189 nM | – | – |
| N[C@@H](Cn1cc(F)c(=O)[nH]c1=O)C(=O)O | – | 14.7 nM | 305 nM | – | – |
| N[C@@H](Cn1nc(Br)c(=O)[nH]c1=O)C(=O)O | 19.3 nM | 29 nM | 7.9 nM | – | – |
| N[C@@H](Cn1nc(Cl)c(=O)[nH]c1=O)C(=O)O | 16.7 nM | 7.1 nM | 3.6 nM | – | – |
| N[C@@H](Cn1cc(Br)c(=O)[nH]c1=O)C(=O)O | – | 92 nM | 457 nM | – | – |
| N[C@@H](Cn1ccc(=O)[nH]c1=O)C(=O)O [(S)-WILLARDIINE] | – | 386 nM | 8850 nM | – | – |
